Measurements as given in US20200113902A1, “COMPOSITIONS AND METHODS FOR TREATING CANCERS WITH COVALENT INHIBITORS OF CYCLIN-DEPENDENT KINASE 7 (CDK7)” (Syros Pharmaceuticals, Inc., priority 2017, published 2020).

Test system: BR5013 xenografts
Test: TNBC patient-derived xenograft BR5013, tumor volume
Format: in vivo, mouse
Details: 40 mg/kg or 30 mg/kg i.v. BIW
Method: Patient-derived xenograft (PDX) models from TNBC patients (BR5010, BR5013, BR5015, and BR5023) were established in NOD-SCID mice at Crown Bioscience (San Diego, USA). Cryo vials containing tumor cells were thawed and prepared for injection into mice. Cells were washed in PBS, counted, and resuspended in cold PBS at a concentration of 50,000-100,000 viable cells/100 ul. Cell suspensions were mixed with an equal volume of Cultrex ECM and kept on ice during transport to the vivarium. Cells were prepared for injections by withdrawing ECM-Cell mixture into a chilled slip-tip syringe fitted with a 26G 7/8 (0.5 mm×22 mm) needle. The filled syringes were kept on ice to avoid the solidification of ECM. Each mouse was inoculated subcutaneously in the right flank with 200 uL of the cell suspension. Tumor sizes were measured in two dimensions using a caliper, and the volumes were expressed in mm^3 using the formula: V=0.5 a×b^2, where a and b are the longest and shortest diameters of the tumor, respectively. Compound 1 treatment was started when the average tumor size reached 150-200 mm^3.
Compound 1 was formulated in w/v 20% Captisol (pH 4-6) and administered by i.v. twice weekly (BIW) at a final dose of 40 mg/kg or 30 mg/kg in a 10 ml/kg volume. Tumor volumes were measured twice weekly over the course of the study. […]

SMILES: CN(C)C/C=C/C(=O)Nc1ccc(C(=O)N[C@@]2(C)CCC[C@@H](Nc3ncc(Cl)c(-c4c[nH]c5ccccc45)n3)C2)nc1 [Compound 1, N-((1S,3R)-3-(5-chloro-4-(1H-indol-3-yl)pyrimidin-2-ylamino)-1-methylcyclohexyl)-5-((E)-4-(dimethylamino)but-2-enamido)picolinamide]
- Tumor growth vs untreated historical samples: little inhibitory effect on tumor growth
